Measurements published in US20230203485A1, “METHODS FOR MODULATING MHC-I EXPRESSION AND IMMUNOTHERAPY USES THEREOF” (Dana-Farber Cancer Institute, Inc., priority 2020, published 2023).

System: class I antigen presentation gene expression in MCC cell lines
Assay: RNA-seq / DESeq2 differential expression of MCC cell lines at baseline and after IFN-γ stimulation
Assay type: cell-based, human
Settings: for log2FoldChange: 11 MCC cell lines, baseline vs IFNγ, negative LFC = upregulation in IFNγ-treated
Protocol: FIG. 2A comprises RNA-seq heatmaps of class I antigen presentation gene expression in MCC lines and controls.
FIG. 2B is a volcano plot of differentially expressed genes (genes below FDR cutoff 0.01 are shown in yellow) between baseline and IFN-γ-treated MCC cell lines. Differential expression analysis was performed using DESeq2, and negative LFC indicates increased expression in +IFN-γ samples. IFN genes are highlighted in red.
RNA samples were first assessed for quality using the Agilent Bioanalyzer (DV200 metric). One hundred ng of RNA were used as the input for first strand cDNA synthesis using Superscript III reverse transcriptase and Illumina's TruSeq RNA Access Sample Prep Kit. Synthesis of the second strand of cDNA was followed by indexed adapter ligation with UMI (unique molecular index) adaptors. Subsequent PCR amplification enriched for adapted fragments. Amplified libraries were quantified, normalized, pooled, and hybridized with exome targeting oligos. Following hybridization, bead clean-up, elution and PCR was performed to prepare library pools for sequencing on Illumina flowcell lanes. Transcriptomes were sequenced to a coverage of at least 50 million reads in pairs.
Raw fastq files for fibroblast and keratinocyte control lines were downloaded from SRA using R Bioconductor package SRAdb (Mayakonda et al. (2018) supra; Zhu et al. (2013) BMC Bioinformatics 14 (1): 1-4) using accession codes SRP126422 (4 replicates from control samples ‘NN’) and SRP131347 (6 replicates with condition: control and genotype: control). These fastq files, along with those for the mkl1 and waga cell lines, were aligned using STAR version 2.7.3a (Dobin et al. (2013) Bioinformatics 29 (1): 15-21), using index genome reference file downloaded from ftp.ebi.ac.uk/pub/databases/gencode/Gencode_human/release_19/GRCh37.p13.genome.fa.gz, transcript annotation file downloaded from data.broadinstitute.org/snowman/hg19/star/gencode.v19.annotation.gtf, and with the following options: --twopassMode Basic, --outSAMstrandField intronMotif, --alignIntronMax 1000000, --alignMatesGapMax 1000000, --sjdbScore 2, --outSAMtype BAM Unsorted, --outSAMattributes NH HI NM MD AS XS, --outFilterType BySJout, --outSAMunmapped Within, --genomeLoad NoSharedMemory, --outFilterScoreMinOverLread 0, --outFilterMatchNminOverLread 0, --outFilterMismatchNmax 999, and outFilterMultimapNmax 20. Duplicates were marked with picard MarkDuplicates version 2.22.0-SNAPSHOT.
RNA-sequencing bam files for MCC tumor and cell line samples were downloaded from the Broad Genomics Firecloud/Terra platform using the Google Cloud Storage command line tool gsutil version 4.5 (github.com/GoogleCloudPlatform/gsutil/).
Gene counts were obtained from bam files using featureCounts version 2.0.0 (doi.org/10.1093/bioinformatics/btt656). Very lowly expressed genes with average count across samples less than 1 were excluded from analysis. Between-sample distance metrics were computed using the Euclidean distance on the vectors of variance-stabilized counts obtained from the vst function in the DESeq2 R Bioconductor package ([…]; Love et al. (2014) Genome Biology 15 (12): 550).
Differential expression analysis was carried out between (1) viral positive and viral negative samples (adjusting for cell line or tumor as a covariate), (2) cell line and tumor samples (adjusting for viral status as a covariate), and (3) IFNγ plus and minus samples (adjusting for viral status as a covariate) using the negative binomial GLM Wald test of DESeq2, where significance was assessed using the p-values adjusted for multiple comparisons under default settings. To account for potential global gene expression differences among sample groups, RUVg (Risso et al. (2014) […] 32 (9): 896-902) was used to estimate latent factors of unwanted variation from the list of housekeeping genes downloaded from www.tau.ac.il/˜elieis/HKG/HK_genes.txt. […]

IFN-y: type II interferon, recombinant human, used to treat MCC cells
log2FoldChange (ENSG00000259321.1 (symbol NA)): −2.031
log2FoldChange (ENSG00000259529.1 (symbol NA)): −0.9956
log2FoldChange (ENSG00000260929.1 (symbol NA)): −3.413
log2FoldChange (ENSG00000261644.1 (symbol NA)): −3.585
log2FoldChange (ENSG00000261690.1 (symbol NA)): −3.339
log2FoldChange (ENSG00000261884.2 (symbol NA)): −2.414
log2FoldChange (ENSG00000262222.1 (symbol NA)): −3.296
log2FoldChange (ENSG00000262979.1 (symbol NA)): −3.334
log2FoldChange (ENSG00000263013.1 (symbol NA)): −1.286
log2FoldChange (ENSG00000263120.1 (symbol NA)): −1.445
log2FoldChange (ENSG00000263179.1 (symbol NA)): −3.474
log2FoldChange (ENSG00000269640.1 (symbol NA)): −6.567
log2FoldChange (ENSG00000271579.1 (symbol NA)): −6.737
log2FoldChange (ENSG00000273189.1 (symbol NA)): −1.701
log2FoldChange (EPSTI1 ENSG00000133106.10): −3.837
log2FoldChange (FBXO7 ENSG00000100225.13): −0.4101
log2FoldChange (FBXO39 ENSG00000177294.6): −6.492
log2FoldChange (FBXO47 ENSG00000204952.2): −4.04
log2FoldChange (FLT3LG ENSG00000090554.8): −2.012
log2FoldChange (HELZ2 ENSG00000130589.12): −1.739
log2FoldChange (ICAM1 ENSG00000090339.4): −6.633
log2FoldChange (IFI27 ENSG00000165949.8): −3.4
log2FoldChange (IFI35 ENSG00000068079.3): −6.454
log2FoldChange (IL12RB1 ENSG00000096996.11): −4.561
log2FoldChange (IRF8 ENSG00000140968.6): −2.927
log2FoldChange (IRF9 ENSG00000213928.4): −2.537
log2FoldChange (ISG20 ENSG00000172183.10): −2.416
log2FoldChange (KRT39 ENSG00000196859.3): −4.95
log2FoldChange (LGALS3BP ENSG00000108679.8): −1.502
log2FoldChange (LGALS9 ENSG00000168961.12): −2.739
log2FoldChange (LGALS17A ENSG00000226025.5): −5.881
log2FoldChange (LINC01993 ENSG00000204277.1): −2.419
log2FoldChange (LOC254028 ENSG00000258573.1): −5.436
log2FoldChange (LOC100294362 ENSG00000263069.1): 1.32
log2FoldChange (LOC100996660 ENSG00000267248.1): −0.6048
HLA-A, -B, and -C mRNA (MCC-336, line non-IFN-responsive by flow cytometry): lack of IFN-induced HLA-A, -B, and -C mRNA upregulation
log2FoldChange (MIR762HG ENSG00000260083.1): −0.6586
log2FoldChange (MLKL ENSG00000168404.8): −2.957
log2FoldChange (MT2A ENSG00000125148.6): −1.532
log2FoldChange (MVP ENSG00000013364.14): −1.512
log2FoldChange (MX2 ENSG00000183486.8): −5.048
log2FoldChange (MXI ENSG00000157601.9): −7.168
log2FoldChange (NLRC5 ENSG00000140853.11): −5.85
log2FoldChange (NUCB1 ENSG00000104805.11): −0.6283
log2FoldChange (OAS1 ENSG00000089127.8): −4.621
log2FoldChange (OAS2 ENSG00000111335.8): −5.442
log2FoldChange (OAS3 ENSG00000111331.8): −2.277
log2FoldChange (OASL ENSG00000135114.8): −6.129
log2FoldChange (OGFR ENSG00000060491.12): −1
log2FoldChange (PARP4 ENSG00000102699.5): −1.087
log2FoldChange (PATL2 ENSG00000229474.2): −4.443
log2FoldChange (PLK1 ENSG00000166851.10): 0.5496
log2FoldChange (PMAIP1 ENSG00000141682.11): −0.9928
log2FoldChange (PML ENSG00000140464.15): −1.421
log2FoldChange (PSMA3 ENSG00000100567.8): −0.4149
log2FoldChange (PSMB10 ENSG00000205220.7): −5.255
log2FoldChange (PSME1 ENSG00000092010.10): −1.964
log2FoldChange (PSME2 ENSG00000100911.9): −1.919
log2FoldChange (RAB2B ENSG00000129472.8): −0.4425
log2FoldChange (RIN3 ENSG00000100599.11): −2.337
log2FoldChange (RNF31 ENSG00000092098.12): −0.6387
log2FoldChange (RNF213 ENSG00000173821.15): −3.097
log2FoldChange (SAMHD1 ENSG00000101347.7): −2.663
log2FoldChange (SOCS1 ENSG00000185338.4): −2.585
log2FoldChange (SOCS3 ENSG00000184557.3): −1.797
log2FoldChange (SPTLC3 ENSG00000172296.8): −2.773
log2FoldChange (STAT3 ENSG00000168610.10): −0.9181
log2FoldChange (TEKT5 ENSG00000153060.3): −1.743
log2FoldChange (TRAFD1 ENSG00000135148.7): −0.5883
log2FoldChange (TRIM25 ENSG00000121060.10): −1.048
log2FoldChange (TRIM69 ENSG00000185880.8): −2.829
log2FoldChange (USP18 ENSG00000184979.9): −1.899
log2FoldChange (USP30-AS1 ENSG00000256262.1): −8.218
log2FoldChange (VPS13C ENSG00000129003.11): −0.9131
log2FoldChange (WARS ENSG00000140105.13): −3.32
log2FoldChange (WIPI1 ENSG00000070540.8): −1.205
log2FoldChange (XAFI ENSG00000132530.12): −11.47
log2FoldChange (ZBP1 ENSG00000124256.10): −5.347
log2FoldChange (ZNFX1 ENSG00000124201.10): −1.109
